From US4190575A, “Polypeptides related to somatostatin” (American Home Products Corporation, priority 1977, dated 1980)
Like-named read-outs stand apart in the source and are kept apart here. Bridge positions count the residues as written; N and C are the ends. Square brackets hold non-standard residues; d marks the D form. Peptide text beside a SMILES is read from it.

Key:
Format in all cases: in vivo
GH secretion = experiment: Duration of effect on GH secretion in rats treated with Nembutal; set-up: duration of significant inhibition of GH: dose or concentration left out as unconfirmed
Method: The peptides of Examples 2 and 4 were also tested for duration of their effect on GH secretion in rats treated with Nembutal.

glucagon = experiment: Arginine-stimulated glucagon in Nembutal-treated rats, radioimmunoassay; conditions: for Glucagon: albino male rats, *p<0.01
Method: (§1) The biological activity of the peptides of Examples 2 and 4 were determined by the following procedure:
(§2) Albino male rats are administered Nembutal intraperitoneally at a dose of 50 milligrams per kilogram. Fifteen minutes later a subcutaneous injection of the test compound of physiological saline is administered. Ten minutes later 0.5 milliliters of arginine (300 milligrams per milliliter, pH 7.2) is injected into the heart. Five minutes after receipt of the arginine the rats are decapitated and blood is collected into trasylol-EDTA. An appropriate aliquot is assayed for growth hormone (GH), insulin, and glucagon by radioimmunoassay.

insulin = experiment: Arginine-stimulated insulin in Nembutal-treated rats, radioimmunoassay; set-up: effect on insulin levels: dose or concentration left out as unconfirmed; conditions: for Insulin: albino male rats
Method: as §1, §2

growth hormone (GH) = experiment: Arginine-stimulated growth hormone (GH) in Nembutal-treated rats, radioimmunoassay; set-up: GH: reference not given here; conditions: for GH: albino male rats, *p<0.01
Method: as §1, §2

[1] = dose 200 ug/kg subcutaneous, blood 15 min after compound, 5 min after arginine
[2] = dose 200 ug/kg subcutaneous, blood 15 min after compound, 5 min after arginine, *p<0.01

Molecule	duration of significant inhibition of GH (GH secretion; (S.C.))	reducing glucagon (glucagon)	Glucagon (glucagon; dose 50 ug/kg subcutaneous)	Glucagon (glucagon; [1])	inhibition of GH at 2 and 4 hours (GH secretion; at 2 and 4 hours)	Insulin (insulin; dose 50 ug/kg subcutaneous)	Insulin (insulin; [2])	effect on insulin levels (insulin; dose of 50)	GH (growth hormone (GH); dose 50 ug/kg subcutaneous)	GH (growth hormone (GH); [1])	reducing growth hormone (growth hormone (GH); dose of 50 mg/kg)	Glucagon (glucagon; dose 40 ug/kg subcutaneous)	reducing glucagon (glucagon; dose of 40 mg/kg)	Insulin (insulin; dose 40 ug/kg subcutaneous)	effect on insulin levels (insulin; dose of 40)	GH (growth hormone (GH); dose 40 ug/kg subcutaneous)	reducing growth hormone (growth hormone (GH); dose of 40 mg/kg)
tert-Butyloxycarbonyl-S-p-methoxybenzyl-L-cysteinyl-N^gn -tosyl-L-arginyl-γ-benzyl-L-glutamyl-L-phenylalanyl-L-phenylalanyl-D-tryptophyl-N^ε -2-chloro-benzyloxycarbonyl-L-lysyl-O-benzyl-L-threonyl-L-phenylalanyl-O-benzyl-L-threonyl-O-benzyl-L-seryl-S-p-methoxybenzyl-L-cysteine hydroxymethyl-polystyrene ester [Example 1]	at least 4 hours	–	–	–	–	–	–	–	–	–	–	–	–	–	–	–	–
C[C@@H](O)[C@@H]1NC(=O)[C@H](Cc2ccccc2)NC(=O)[C@H]([C@@H](C)O)NC(=O)[C@H](CCCCN)NC(=O)[C@@H](Cc2c[nH]c3ccccc23)NC(=O)[C@H](Cc2ccccc2)NC(=O)[C@H](Cc2ccccc2)NC(=O)[C@H](CCC(=O)O)NC(=O)[C@H](Cc2c[nH]cn2)NC(=O)[C@@H](N)CSSC[C@@H](C(=O)O)NC(=O)[C@H](CO)NC1=O [Example 4, L-Cysteinyl-L-histidyl-L-glutamyl-L-phenylalanyl-L-phenylalanyl-D-tryptophyl-L-lysyl-L-threonyl-L-phenylalanyl-L-threonyl-L-seryl-L-cysteine cyclic (1-12) disulfide] (H-CHEFF[dW]KTFTSC-OH; disulfide 1-12)	–	effective agents for reducing growth hormone and glucagon	10 ± 4 pg/mL	4 ± 2 pg/mL	no significant inhibition of GH	322 ± 40 μU/ml.	205 ± 36 μU/ml.	without materially affecting insulin levels	84 ± 17 ng/mL	107 ± 29 ng/mL	effective agents for reducing growth hormone	–	–	–	–	–	–
C[C@@H](O)[C@@H]1NC(=O)[C@H](Cc2ccccc2)NC(=O)[C@H]([C@@H](C)O)NC(=O)[C@H](CCCCN)NC(=O)[C@@H](Cc2c[nH]c3ccccc23)NC(=O)[C@H](Cc2ccccc2)NC(=O)[C@H](Cc2ccccc2)NC(=O)[C@H](CCC(=O)O)NC(=O)[C@H](CCCNC(=N)N)NC(=O)[C@@H](N)CSSC[C@@H](C(=O)O)NC(=O)[C@H](CO)NC1=O [Example 2, L-Cysteinyl-L-arginyl-L-glutamyl-L-phenylalanyl-L-phenylalanyl-D-tryptophyl-L-lysyl-L-threonyl-L-phenylalanyl-L-threonyl-L-seryl-L-cysteine cyclic (1-12) disulfide] (H-CREFF[dW]KTFTSC-OH; disulfide 1-12)	–	–	–	1.5 ± 1 pg/mL	–	–	115 ± 16 μU/ml.	–	–	42 ± 6 ng/mL	–	12 ± 2 pg/mL	effective agents for reducing growth hormone and glucagon	158 ± 57 μU/ml.	without materially affecting insulin levels	28 ± 5 ng/mL	effective agents for reducing growth hormone
